row,melting point [°C],SMILES
1,228 to 230,Cc1cc(N)nc(CCc2nc3cc(-c4ccc(Cl)cc4)cnc3[nH]2)c1.Cl
2,136,Cc1cc(N)nc(CCc2nc3cccnc3[nH]2)c1.Cl
3,54,CC(=O)O.Cc1cc(N)nc(CCc2nc3cccnc3[nH]2)c1
4,186,Cc1ccc(-c2cnc3[nH]c(CCc4cc(C)cc(N)n4)nc3c2)cc1.Cl
5,48,"Cc1cc(N)nc(CC(C)c2nc3cccnc3[nH]2)c1 (racemic) [compound 2, (R,S)-2-[3-(2-Amino-4-methylpyridin-6-yl)prop-2-yl]-3H-imidazo[4,5-b]pyridine]"
6,45 to 47,"Cc1cc(N)nc(CCc2nc3cccnc3[nH]2)c1 [compound 1, 2-[2-(2-Amino-4-methylpyridin-6-yl)ethyl]-3H-imidazo[4,5-b]pyridine]"
7,216,"Cc1cc(N)nc(CCc2nc3cc(Br)cnc3[nH]2)c1 [compound 4, 2-[2-(2-Amino-4-methylpyridin-6-yl)ethyl]-6-bromo-3H-imidazo[4,5-b]pyridine]"
8,230,"Cc1cc(N)nc(CCc2nc3cc(-c4ccccc4)cnc3[nH]2)c1 [compound 5, 2-[2-(2-Amino-4-methylpyridin-6-yl)ethyl]-6-phenyl-3H-imidazo[4,5-b]pyridine]"
9,162,"Cc1cc(N)nc(CCc2nc3cc(-c4cccc(O)c4)cnc3[nH]2)c1 [compound 16, 3-{2-[2-(6-Amino-4-methyl-pyridin-2-yl)-ethyl]-3H-imidazo[4,5-b]pyridin-6-yl}-phenol]"

# Second part, the molecule before the results:
row,SMILES,melting point [°C]
1,"Cc1cc(N)nc(CCc2nc3cc(-c4ccc(C#N)cc4)cnc3[nH]2)c1 [compound 6, 2-[2-(2-Amino-4-methylpyridin-6-yl)ethyl]-6-(4-cyano-phenyl)-3H-imidazo[4,5-b]pyridine]",218
2,"Cc1cc(N)nc(CCc2nc3cc(-c4cccc(OCc5ccccc5)c4)cnc3[nH]2)c1 [compound 13, 6-{2-[6-(3-Benzyloxy-phenyl)-3H-imidazo[4,5-b]pyridin-2-yl]-ethyl}-4-methyl-pyridin-2-ylamine]",181
3,"Cc1cc(N)nc(CCc2nc3cc(-c4cc(Cl)cc(Cl)c4)cnc3[nH]2)c1 [compound 14, 6-{2-[6-(3,5-Dichloro-phenyl)-3H-imidazo[4,5-b]pyridin-2-yl]-ethyl}-4-methyl-pyridin-2-ylamine]",224
4,"Cc1cc(N)nc(CCc2nc3cc(-c4ccc(OCc5ccccc5)cc4)cnc3[nH]2)c1 [compound 15, 6-{2-[6-(4-Benzyloxy-phenyl)-3H-imidazo[4,5-b]pyridin-2-yl]-ethyl}-4-methyl-pyridin-2-ylamine]",225
5,"Cc1cc(N)nc(CCc2nc3cc(-c4ccc(S(=O)(=O)N5CCC5)cc4)cnc3[nH]2)c1 [compound 17, 6-(2-{6-[4-(Azetidine-1-sulfonyl)-phenyl]-3H-imidazo[4,5-b]pyridin-2-yl}-ethyl)-4-methyl-pyridin-2-ylamine]",168
6,"Cc1cc(N)nc(CCc2nc3cc(-c4ccc(S(=O)(=O)N5CCCC5)cc4)cnc3[nH]2)c1 [compound 18, 4-Methyl-6-(2-{6-[4-(pyrrolidine-1-sulfonyl)-phenyl]-3H-imidazo[4,5-b]pyridin-2-yl}-ethyl)-pyridin-2-ylamine]",171
7,"Cc1cc(N)nc(CCc2nc3cc(-c4ccc(S(=O)(=O)N5CCCCC5)cc4)cnc3[nH]2)c1 [compound 19, 4-Methyl-6-(2-{6-[4-(piperidine-1-sulfonyl)-phenyl]-3H-imidazo[4,5-b]pyridin-2-yl}-ethyl)-pyridin-2-ylamine]",233
8,"Cc1cc(N)nc(CCc2nc3cc(-c4ccc(S(=O)(=O)N5CCN(C)CC5)cc4)cnc3[nH]2)c1 [compound 21, 4-Methyl-6-(2-{6-[4-(4-methyl-piperazine-1-sulfonyl)-phenyl]-3H-imidazo[4,5-b]pyridin-2-yl}-ethyl)-pyridin-2-ylamine]",135
